The values below come from the supplement of paper PMC10307832.

Common to all, as to assay: relative viability (nuclei count vs DMSO), 5 days (fraction); higher = more cells survive
Compound in the assay “NVP-TAE684 + Trametinib”: COc1cc(N2CCC(N3CCN(C)CC3)CC2)ccc1Nc1ncc(Cl)c(Nc2ccccc2S(=O)(=O)C(C)C)n1 [NVP-TAE684] + CC(=O)Nc1cccc(-n2c(=O)n(C3CC3)c(=O)c3c(Nc4ccc(I)cc4F)n(C)c(=O)c(C)c32)c1 [Trametinib] (partner 0.02 µM)
In short, it runs like this:
(§1)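 Each reported value is a median over duplicate plates. It expresses relative viability: treated-well nuclei count divided by vehicle-well nuclei count. Lung cancer cell lines in 1536-well plates were dosed by pin tool a day after seeding, alone with one drug or with a fixed anchor-drug dose plus five library-drug doses (not always all listed) in √10 steps, and nuclei were counted after 5 days.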

Compound in the assay “NVP-TAE684 + Navitoclax”: COc1cc(N2CCC(N3CCN(C)CC3)CC2)ccc1Nc1ncc(Cl)c(Nc2ccccc2S(=O)(=O)C(C)C)n1 [NVP-TAE684] + CC1(C)CCC(c2ccc(Cl)cc2)=C(CN2CCN(c3ccc(C(=O)NS(=O)(=O)c4ccc(N[C@H](CCN5CCOCC5)CSc5ccccc5)c(S(=O)(=O)C(F)(F)F)c4)cc3)CC2)C1 [Navitoclax] (partner 0.5 µM)
The procedure, abridged: as §1

Compound in the assay “NVP-TAE684 + Luminespib”: COc1cc(N2CCC(N3CCN(C)CC3)CC2)ccc1Nc1ncc(Cl)c(Nc2ccccc2S(=O)(=O)C(C)C)n1 [NVP-TAE684] + CCNC(=O)c1noc(-c2cc(C(C)C)c(O)cc2O)c1-c1ccc(CN2CCOCC2)cc1 [Luminespib] (partner 0.01 µM)
The procedure, abridged:
as §1

Compound in the assay “NVP-TAE684 + OSI-027”: COc1cc(N2CCC(N3CCN(C)CC3)CC2)ccc1Nc1ncc(Cl)c(Nc2ccccc2S(=O)(=O)C(C)C)n1 [NVP-TAE684] + COc1cccc2cc(-c3nc([C@H]4CC[C@H](C(=O)O)CC4)n4ncnc(N)c34)[nH]c12 [OSI-027] (partner 0.5 µM)
In short, it runs like this: as §1

Compound in the assay “Vandetanib + Foretinib”: COc1cc2/c(=N/c3ccc(Br)cc3F)nc[nH]c2cc1OCC1CCN(C)CC1 [Vandetanib] + COc1cc2c(Oc3ccc(NC(=O)C4(C(=O)Nc5ccc(F)cc5)CC4)cc3F)ccnc2cc1OCCCN1CCOCC1 [Foretinib] (partner 0.25 µM)
In short, it runs like this:
as §1

On to UMC-11, for which the relative viability in the assay with NVP-TAE684 + Trametinib (first compound 0.2 µM) was found to be 0.701; in the assay with NVP-TAE684 + Trametinib (first compound 0.6325 µM), 0.636; with NVP-TAE684 + Trametinib (first compound 2 µM) it was 0.434; with NVP-TAE684 + Navitoclax (first compound 0.2 µM), 0.331; with NVP-TAE684 + Navitoclax (first compound 0.6325 µM) it was 0.289; with NVP-TAE684 + Navitoclax (first compound 2 µM) it was 0.162. The relative viability was determined as 0.879 with NVP-TAE684 + Luminespib (first compound 0.2 µM); 0.946 with NVP-TAE684 + Luminespib (first compound 0.6325 µM); 0.297 with NVP-TAE684 + Luminespib (first compound 2 µM); 0.412 with NVP-TAE684 + OSI-027 (first compound 0.2 µM); 0.438 in the assay with NVP-TAE684 + OSI-027 (first compound 0.6325 µM); 0.282 in the assay with NVP-TAE684 + OSI-027 (first compound 2 µM). The relative viability with Vandetanib + Foretinib (first compound 0.02 µM) worked out at 1.05; with Vandetanib + Foretinib (first compound 0.06325 µM), 1.01; in the assay with Vandetanib + Foretinib (first compound 0.2 µM), 0.281; with Vandetanib + Foretinib (first compound 0.6325 µM) it was 0.962; with Vandetanib + Foretinib (first compound 2 µM), 0.97.
